From patent US6645918B1, “N-([1,2,4]triazoloazinyl)thiophenesulfonamide compounds and their use as herbicides” (Dow AgroSciences LLC, priority 2000, dated 2003)

Legend:
Type in all cases: in vivo
[1] = system: chickweed (Stellaria media); assay: Postemergence herbicidal activity, chickweed; conditions: foliar spray, visual after 2 weeks, 0 no injury, 100 complete kill
Procedure: (§1) Seeds of the desired test plant species were planted in Grace-Sierra MetroMix® 306 planting mixture, which typically has a pH of 6.0 to 6.8 and an organic matter content of about 30 percent, in plastic pots with a surface area of 64 square centimeters. When required to ensure good germination and healthy plants, a fungicide treatment and/or other chemical or physical treatment was applied. The plants were grown for 7-21 days in a greenhouse with an approximately 15 hr photoperiod which was maintained at about 23-29° C. during the day and 22-28° C. during the night. Nutrients and water were added on a regular basis and supplemental lighting was provided with overhead metal halide 1000 Watt lamps as necessary. The plants were employed for testing when they reached the first or second true leaf stage. A weighed amount of each test compound, determined by the highest rate to be tested, was placed in a 20 mL glass vial and was dissolved in 4 mL of a 97:3 v/v (volume/volume) mixture of acetone and dimethyl sulfoxide to obtain concentrated stock solutions. […] The concentrated stock solutions obtained were diluted with an aqueous mixture containing acetone, water, iso-propyl alcohol, dimethyl sulfoxide, Atplus 411F crop oil concentrate, and Triton X-155 surfactant (methylenebisdiamyl phenoxy polyethoxy ethanol) in a 48.5:39:10:1.5:1.0:0.02 v/v ratio to obtain spray solutions of known concentration. The solutions containing the highest concentration to be tested were prepared by diluting 2 mL aliquots of the stock solution with 13 mL of the mixture and lower concentrations were prepared by dilution of appropriate smaller portions of the stock solution. Approximately 1.5 mL aliquots of each solution of known concentration were sprayed evenly onto each of the test plant pots using a DeVilbiss atomizer driven by compressed air pressure of 2 to 4 psi (140 to 280 kilopascals) to obtain thorough coverage of each plant. Control plants were sprayed in the same manner with the aqueous mixture. In this test an application rate of 1 ppm results in the application of approximately 1 g/ha. The treated plants and control plants were placed in a greenhouse as described above and watered by sub-irrigation to prevent wash-off of the test compounds. After 2 weeks the condition of the test plants as compared with that of the untreated plants was determined visually and scored on a scale of 0 to 100 percent where 0 corresponds to no injury and 100 corresponds to complete kill.

[2] = system: cocklebur (Xanthium strumarium); assay: Postemergence herbicidal activity, cocklebur; conditions: foliar spray, visual after 2 weeks, 0 no injury, 100 complete kill
Procedure: as §1

[3] = system: lambsquarters (Chenopodium album); assay: Postemergence herbicidal activity, lambsquarters; conditions: foliar spray, visual after 2 weeks, 0 no injury, 100 complete kill
Procedure: as §1

[4] = system: morningglory (Ipomoea hederacea); assay: Postemergence herbicidal activity, morningglory; conditions: foliar spray, visual after 2 weeks, 0 no injury, 100 complete kill
Procedure: as §1

[5] = system: pigweed (Amaranthus retroflexus); assay: Postemergence herbicidal activity, pigweed; conditions: foliar spray, visual after 2 weeks, 0 no injury, 100 complete kill
Procedure: as §1

[6] = system: velvetleaf (Abutilion theophrasti); assay: Postemergence herbicidal activity, velvetleaf; conditions: foliar spray, visual after 2 weeks, 0 no injury, 100 complete kill
Procedure: as §1

[7] = system: viola (Viola tricolor); assay: Postemergence herbicidal activity, viola; conditions: foliar spray, visual after 2 weeks, 0 no injury, 100 complete kill
Procedure: as §1

[8] = system: wild buckwheat (Polygonum convolvulus); assay: Postemergence herbicidal activity, wild buckwheat; conditions: foliar spray, visual after 2 weeks, 0 no injury, 100 complete kill
Procedure: as §1

[9] = system: blackgrass (Alopecurus myosuroides); assay: Postemergence herbicidal activity, blackgrass; conditions: foliar spray, visual after 2 weeks, 0 no injury, 100 complete kill
Procedure: as §1

[10] = system: giant foxtail (Setaria faberi); assay: Postemergence herbicidal activity, giant foxtail; conditions: foliar spray, visual after 2 weeks, 0 no injury, 100 complete kill
Procedure: as §1

[11] = system: Rox orange sorghum (Sorghum bicolor); assay: Postemergence herbicidal activity, Rox orange sorghum; conditions: foliar spray, visual after 2 weeks, 0 no injury, 100 complete kill
Procedure: as §1

[12] = system: wild oats (Avena fatua); assay: Postemergence herbicidal activity, wild oats; conditions: foliar spray, visual after 2 weeks, 0 no injury, 100 complete kill
Procedure: as §1

[13] = system: cocklebur (Xanthium strumarium); assay: Preemergence herbicidal activity, cocklebur; conditions: soil spray, visual after 3 weeks, 0 no injury, 100 complete kill or no germination
Procedure: (§2) The soil matrix was contained in plastic pots with a surface area of 161 square centimeters. When required to ensure good germination and healthy plants, a fungicide treatment and/or other chemical or physical treatment was applied. A weighed amount, determined by the highest rate to be tested, of each test compound was placed in a 20 mL glass vial and was dissolved in 8 mL of a 97:3 v/v (volume/volume) mixture of acetone and dimethyl sulfoxide to obtain concentrated stock solutions. […] The stock solutions obtained were diluted with a 99.9:0.1 mixture of water and Tween® 155 surfactant (ethoxylated sorbitan fatty acid ester) to obtain application solutions of known concentration. The solutions containing the highest concentration to be tested were prepared by diluting 4 mL aliquots of the stock solution with 8.5 mL of the mixture and lower concentrations were prepared by dilution of appropriate smaller portions of the stock solution. A 2.5 mL aliquot of each solution of known concentration was sprayed evenly onto the soil of each seeded pot using a Cornwall 5.0 mL glass syringe fitted with a TeeJet TN-3 hollow cone nozzle to obtain thorough coverage of the soil in each pot. Control pots were sprayed in the same manner with the aqueous mixture. A highest application rate of 4.48 kg/ha is achieved when 50 mg of test compound is employed. The treated pots and control pots were placed in a greenhouse with an approximately 15 hr photoperiod which was maintained at about 23-29° C. during the day and 22-28° C. during the night. Nutrients and water were added on a regular basis and supplemental lighting was provided with overhead metal halide 1000 Watt lamps as necessary. The water was added by top-irrigation. After 3 weeks the condition of the test plants that germinated and grew as compared with that of the untreated plants that germinated and grew was determined visually and scored on a scale of 0 to 100 percent where 0 corresponds to no injury and 100 corresponds to complete kill or no germination.

[14] = system: lambsquarters (Chenopodium album); assay: Preemergence herbicidal activity, lambsquarters; conditions: soil spray, visual after 3 weeks, 0 no injury, 100 complete kill or no germination
Procedure: as §2

[15] = system: morningglory (Ipomoea hederacea); assay: Preemergence herbicidal activity, morningglory; conditions: soil spray, visual after 3 weeks, 0 no injury, 100 complete kill or no germination
Procedure: as §2

[16] = system: pigweed (Amaranthus retroflexus); assay: Preemergence herbicidal activity, pigweed; conditions: soil spray, visual after 3 weeks, 0 no injury, 100 complete kill or no germination
Procedure: as §2

[17] = system: velvetleaf (Abutilion theophrasti); assay: Preemergence herbicidal activity, velvetleaf; conditions: soil spray, visual after 3 weeks, 0 no injury, 100 complete kill or no germination
Procedure: as §2

[18] = system: wild poinsettia (Euphorbia heterophylla); assay: Preemergence herbicidal activity, wild poinsettia; conditions: soil spray, visual after 3 weeks, 0 no injury, 100 complete kill or no germination
Procedure: as §2

[19] = system: blackgrass (Alopecurus myosuroides); assay: Preemergence herbicidal activity, blackgrass; conditions: soil spray, visual after 3 weeks, 0 no injury, 100 complete kill or no germination
Procedure: as §2

[20] = system: barnyardgrass (Echinochloa crus-galli); assay: Preemergence herbicidal activity, barnyardgrass; conditions: soil spray, visual after 3 weeks, 0 no injury, 100 complete kill or no germination
Procedure: as §2

[21] = system: crabgrass (Digitaria sanguinalis); assay: Preemergence herbicidal activity, crabgrass; conditions: soil spray, visual after 3 weeks, 0 no injury, 100 complete kill or no germination
Procedure: as §2

[22] = system: giant foxtail (Setaria faberi); assay: Preemergence herbicidal activity, giant foxtail; conditions: soil spray, visual after 3 weeks, 0 no injury, 100 complete kill or no germination
Procedure: as §2

[23] = system: Rox orange sorghum (Sorghum bicolor); assay: Preemergence herbicidal activity, Rox orange sorghum; conditions: soil spray, visual after 3 weeks, 0 no injury, 100 complete kill or no germination
Procedure: as §2

[24] = system: wild oats (Avena fatua); assay: Preemergence herbicidal activity, wild oats; conditions: soil spray, visual after 3 weeks, 0 no injury, 100 complete kill or no germination
Procedure: as §2

## COc1cnc(OC)n2nc(NS(=O)(=O)c3ccsc3CC(=O)O)nc12 [Compound 6, N-(5,8-dimethoxy[1,2,4]triazolo[1,5-c]pyrimidin-2-yl)-2-carboxymethylthiophene-3-sulfonamide]
[1]; 7.8 ppm
  STEME postemergence injury score 0-100: 80%
[2]; 7.8 ppm
  XANST postemergence injury score 0-100: 95%
[3]; 7.8 ppm
  CHEAL postemergence injury score 0-100: 80%
[4]; 7.8 ppm
  IPOHE postemergence injury score 0-100: 85%
[5]; 7.8 ppm
  AMARE postemergence injury score 0-100: 100%
[6]; 7.8 ppm
  ABUTH postemergence injury score 0-100: 90%
[7]; 7.8 ppm
  VIOTR postemergence injury score 0-100: 85%
[8]; 7.8 ppm
  POLCO postemergence injury score 0-100: 85%
[9]; 7.8 ppm
  ALOMY postemergence injury score 0-100: 80%
[10]; 7.8 ppm
  SETFA postemergence injury score 0-100: 98%
[11]; 7.8 ppm
  SORBI postemergence injury score 0-100: 80%
[12]; 7.8 ppm
  AVEFA postemergence injury score 0-100: 70%
[13]; 35 g/Ha
  XANST preemergence injury score 0-100: 70%
[14]; 35 g/Ha
  CHEAL preemergence injury score 0-100: 99%
[15]; 35 g/Ha
  IPOHE preemergence injury score 0-100: 80%
[16]; 35 g/Ha
  AMARE preemergence injury score 0-100: 100%
[17]; 35 g/Ha
  ABUTH preemergence injury score 0-100: 80%
[18]; 35 g/Ha
  EPHHL preemergence injury score 0-100: 70%
[19]; 35 g/Ha
  ALOMY preemergence injury score 0-100: 75%
[20]; 35 g/Ha
  ECHCG preemergence injury score 0-100: 80%
[21]; 35 g/Ha
  DIGSA preemergence injury score 0-100: 100%
[22]; 35 g/Ha
  SETFA preemergence injury score 0-100: 100%
[23]; 35 g/Ha
  SORBI preemergence injury score 0-100: 100%
[24]; 35 g/Ha
  AVEFA preemergence injury score 0-100: 80%

## COc1csc(C(F)(F)F)c1S(=O)(=O)Nc1nc2c(OC)cnc(OC)n2n1 [Compound 10]
[1]; 15.6 ppm
  STEME postemergence injury score 0-100: 98%
[2]; 15.6 ppm
  XANST postemergence injury score 0-100: 100%
[3]; 15.6 ppm
  CHEAL postemergence injury score 0-100: 70%
[4]; 15.6 ppm
  IPOHE postemergence injury score 0-100: 80%
[5]; 15.6 ppm
  AMARE postemergence injury score 0-100: 95%
[6]; 15.6 ppm
  ABUTH postemergence injury score 0-100: 90%
[7]; 15.6 ppm
  VIOTR postemergence injury score 0-100: 90%
[8]; 15.6 ppm
  POLCO postemergence injury score 0-100: 70%
[9]; 15.6 ppm
  ALOMY postemergence injury score 0-100: 50%
[10]; 15.6 ppm
  SETFA postemergence injury score 0-100: 90%
[11]; 15.6 ppm
  SORBI postemergence injury score 0-100: 80%
[12]; 15.6 ppm
  AVEFA postemergence injury score 0-100: 80%
[14]; 8.8 g/Ha
  CHEAL preemergence injury score 0-100: 95%
[15]; 8.8 g/Ha
  IPOHE preemergence injury score 0-100: 80%
[16]; 8.8 g/Ha
  AMARE preemergence injury score 0-100: 100%
[17]; 8.8 g/Ha
  ABUTH preemergence injury score 0-100: 70%
[18]; 8.8 g/Ha
  EPHHL preemergence injury score 0-100: 75%
[19]; 8.8 g/Ha
  ALOMY preemergence injury score 0-100: 90%
[20]; 8.8 g/Ha
  ECHCG preemergence injury score 0-100: 90%
[21]; 8.8 g/Ha
  DIGSA preemergence injury score 0-100: 70%
[22]; 8.8 g/Ha
  SETFA preemergence injury score 0-100: 90%
[23]; 8.8 g/Ha
  SORBI preemergence injury score 0-100: 100%
[24]; 8.8 g/Ha
  AVEFA preemergence injury score 0-100: 90%

## CCOc1cscc1S(=O)(=O)Nc1nc2c(OC)ccc(OC)n2n1 [Compound 11]
[1]; 15.6 ppm
  STEME postemergence injury score 0-100: 80%
[2]; 15.6 ppm
  XANST postemergence injury score 0-100: 90%
[3]; 15.6 ppm
  CHEAL postemergence injury score 0-100: 95%
[4]; 15.6 ppm
  IPOHE postemergence injury score 0-100: 70%
[5]; 15.6 ppm
  AMARE postemergence injury score 0-100: 100%
[6]; 15.6 ppm
  ABUTH postemergence injury score 0-100: 85%
[7]; 15.6 ppm
  VIOTR postemergence injury score 0-100: 75%
[8]; 15.6 ppm
  POLCO postemergence injury score 0-100: 80%
[9]; 15.6 ppm
  ALOMY postemergence injury score 0-100: 75%
[10]; 15.6 ppm
  SETFA postemergence injury score 0-100: 100%
[11]; 15.6 ppm
  SORBI postemergence injury score 0-100: 90%
[12]; 15.6 ppm
  AVEFA postemergence injury score 0-100: 85%
[13]; 4.4 g/Ha
  XANST preemergence injury score 0-100: 50%
[14]; 4.4 g/Ha
  CHEAL preemergence injury score 0-100: 95%
[15]; 4.4 g/Ha
  IPOHE preemergence injury score 0-100: 30%
[16]; 4.4 g/Ha
  AMARE preemergence injury score 0-100: 90%
[17]; 4.4 g/Ha
  ABUTH preemergence injury score 0-100: 80%
[18]; 4.4 g/Ha
  EPHHL preemergence injury score 0-100: 50%
[19]; 4.4 g/Ha
  ALOMY preemergence injury score 0-100: 100%
[20]; 4.4 g/Ha
  ECHCG preemergence injury score 0-100: 10%
[21]; 4.4 g/Ha
  DIGSA preemergence injury score 0-100: 40%
[22]; 4.4 g/Ha
  SETFA preemergence injury score 0-100: 100%
[23]; 4.4 g/Ha
  SORBI preemergence injury score 0-100: 98%
[24]; 4.4 g/Ha
  AVEFA preemergence injury score 0-100: 70%
